What was measured:
Brassica napus = assay: Drought stress test on sprayed greenhouse plants, visual damage scoring (Table 3); type: in vivo; design: key: reduction in damage intensity, damage assessed in %; settings: efficacy = reduction in damage intensity, spray WP, 600 l/ha water
Description: (§1) Seeds of monocotyledonous and dicotyledonous crop plants are sown in sandy loam in plastic or wood-fiber pots, covered with soil or sand and cultivated in a greenhouse under good growth conditions. The test plants are treated at the early leaf stage (BBCH10-BBCH13). To assure uniform water supply before commencement of stress, the potted plants are supplied with water by dam irrigation prior to substance application. The inventive compounds, formulated in the form of wettable powders (WP), are sprayed onto the green parts of the plants as an aqueous suspension at an equivalent water application rate of 600 I/ha with addition of 0.2% wetting agent (e.g. agrotin). Substance application is followed immediately by stress treatment of the plants. For this purpose, the wood-fiber pots are transferred in plastic inserts in order to prevent them from subsequently drying out too quickly. Drought stress is induced by gradual drying out under the following conditions: “Day”: 14 hours with illumination at 26-30° C. “Night”: 10 hours without illumination at 18-20° C. The duration of the respective stress phases is guided mainly by the condition of the stressed control plants. […] The end of the stress phase is followed by an approx. 4-14-day recovery phase, during which the plants are once again kept under good growth conditions in a greenhouse. The duration of the recovery phase is guided mainly by when the trial plants have attained a state which enables visual scoring of potential effects, and is therefore variable. […] The damage intensity is at first assessed in percent.

Zea mays (corn) = assay: Drought stress test on sprayed greenhouse plants, visual damage scoring (Table 2); type: in vivo; design: key: reduction in damage intensity, damage assessed in %; settings: efficacy = reduction in damage intensity, spray WP, 600 l/ha water
Description: as §1

CNC(=O)c1cc(I)c(C(F)(F)F)[nH]c1=O [compound 2220] was tested, and the “E (BRSNS)” value (Brassica napus; dosage 25 g/ha) was greater than 5.

In the case of Cc1[nH]c(=O)c(C(=O)NCCC(C)C)cc1Cl [compound 2290], the “E (ZEAMX)” value (Zea mays (corn); dosage 250 g/ha) is reported as greater than 5.

CCOC(=O)C1CCCCN1C(=O)c1cc(Cl)c(C(F)(F)Cl)[nH]c1=O (stereo not drawn) [compound 1744, 1-({5′-chloro-6′-[chloro(difluoro)methyl]-2′-oxo-1′,2′-dihydropyridin-3′-yl}carbonyl)-piperidine-2-carboxylic acid ethyl ester] was tested, and the “E (BRSNS)” value (Brassica napus; dosage 25 g/ha) was greater than 5.

In the case of Cc1cc(C(=O)NCC(=O)O)c(=O)[nH]c1C(F)(F)F [compound 170], the “E (ZEAMX)” value (Zea mays (corn); dosage 250 g/ha) is reported as greater than 5.

With COCCCNC(=O)c1cc(I)c(C(F)C(F)(F)F)[nH]c1=O (stereo not drawn) [compound 2233] the “E (BRSNS)” value (Brassica napus; dosage 25 g/ha) was greater than 5.

With CC(C)C(C)NC(=O)c1cc(Cl)c(C(F)(F)C(F)(F)Cl)[nH]c1=O (stereo not drawn) [compound 1578] the “E (ZEAMX)” value (Zea mays (corn); dosage 250 g/ha) was greater than 5.

For Cc1cc(C(=O)NC2CC2)c(=O)[nH]c1C(F)(F)C(F)(F)F [compound 225], the “E (BRSNS)” value (Brassica napus; dosage 25 g/ha) was greater than 5.

CCCNC(=O)c1cc(Cl)c(C)[nH]c1=O [compound 2270] was tested, and the “E (ZEAMX)” value (Zea mays (corn); dosage 25 g/ha) was greater than 5.

In the case of CC(C)CC(C)NC(=O)c1cc(Br)c(C(F)(Cl)C(F)(F)F)[nH]c1=O (stereo not drawn) [compound 2016], the “E (BRSNS)” value (Brassica napus; dosage 25 g/ha) is reported as greater than 5.

With CCc1cc(C(=O)NC2CCC2)c(=O)[nH]c1C(F)(F)Cl [compound 777] the “E (ZEAMX)” value (Zea mays (corn); dosage 25 g/ha) was greater than 5.

CCCNC(=O)c1cc(C)c(C)[nH]c1=O [compound 3] was tested, and the “E (ZEAMX)” value (Zea mays (corn); dosage 250 g/ha) was greater than 5.

For CCc1cc(C(=O)NCC(OC)OC)c(=O)[nH]c1C(F)(F)Cl [compound 813], the “E (BRSNS)” value (Brassica napus; dosage 25 g/ha) was greater than 5.

With Cc1cc(C(=O)NC(C)CC(C)C)c(=O)[nH]c1C (stereo not drawn) [compound 36] the “E (ZEAMX)” value (Zea mays (corn); dosage 250 g/ha) was greater than 5.

For Cc1cc(C(=O)NC(C)C(C)C)c(=O)[nH]c1C(F)(F)C(F)(F)F (stereo not drawn) [compound 258], the “E (BRSNS)” value (Brassica napus; dosage 25 g/ha) was greater than 5.

With CCC(C)NC(=O)c1cc(C)c(C)[nH]c1=O (stereo not drawn) [compound 29] the “E (BRSNS)” value (Brassica napus; dosage 250 g/ha) was greater than 5.

For Cc1cc(C(=O)N(C)c2ccccc2)c(=O)[nH]c1C(F)(F)F [compound 219, N,5-Dimethyl-2-oxo-N-phenyl-6-(trifluoromethyl)-1,2-dihydropyridine-3-carboxamide], the “E (ZEAMX)” value (Zea mays (corn); dosage 250 g/ha) was greater than 5.

For Cc1cc(C(=O)NCC2CC2)c(=O)[nH]c1C [compound 13], the “E (BRSNS)” value (Brassica napus; dosage 250 g/ha) was greater than 5.

With CNC(=O)c1cc(C)c(C(F)(F)C(F)(F)F)[nH]c1=O [compound 221] the “E (ZEAMX)” value (Zea mays (corn); dosage 250 g/ha) was greater than 5.

With Cc1cc(C(=O)NC(C)C(F)(F)F)c(=O)[nH]c1C(F)(F)C(F)(F)C(F)(F)F (stereo not drawn) [compound 2251] the “E (BRSNS)” value (Brassica napus; dosage 250 g/ha) was greater than 5.

Cc1cc(C(=O)NC(C)CC(C)C)c(=O)[nH]c1C(F)(F)C(F)(F)F (stereo not drawn) [compound 256] was tested, and the “E (BRSNS)” value (Brassica napus; dosage 25 g/ha) was greater than 5.

In the case of CCNC(=O)c1cc(C)c(C(F)(F)C(F)(F)F)[nH]c1=O [compound 222], the “E (ZEAMX)” value (Zea mays (corn); dosage 250 g/ha) is reported as greater than 5.

In the case of COCCNC(=O)c1cc(Br)c(C)[nH]c1=O [compound 2423], the “E (ZEAMX)” value (Zea mays (corn); dosage 2.5 g/ha) is reported as greater than 5.

With CCCc1cc(C(=O)NCCCOC)c(=O)[nH]c1C(F)(F)C(F)(F)F [compound 1154] the “E (BRSNS)” value (Brassica napus; dosage 250 g/ha) was greater than 5.

With Cc1cc(C(=O)NC(C)CC(C)C)c(=O)[nH]c1C(F)(Cl)C(F)(F)F (stereo not drawn) [compound 2246] the “E (BRSNS)” value (Brassica napus; dosage 25 g/ha) was greater than 5.

CCCc1cc(C(=O)NCC(=O)OC)c(=O)[nH]c1C(F)(F)C(F)(F)F [compound 1159] was tested, and the “E (ZEAMX)” value (Zea mays (corn); dosage 250 g/ha) was greater than 5.

In the case of CCc1cc(C(=O)NCC(=O)OC)c(=O)[nH]c1C(F)(F)F [compound 610], the “E (ZEAMX)” value (Zea mays (corn); dosage 25 g/ha) is reported as greater than 5.

In the case of CCNC(=O)c1cc(Cl)c(C(F)(F)F)[nH]c1=O [compound 1212], the “E (ZEAMX)” value (Zea mays (corn); dosage 25 g/ha) is reported as greater than 5.

COC(=O)CNC(=O)c1cc(C)c(C)[nH]c1=O [compound 59] was tested, and the “E (ZEAMX)” value (Zea mays (corn); dosage 25 g/ha) was greater than 5.

CCCNC(=O)c1cc(C)c(C(F)(F)C(F)(F)F)[nH]c1=O [compound 223] was tested, and the “E (ZEAMX)” value (Zea mays (corn); dosage 25 g/ha) was greater than 5.

CCc1cc(C(=O)NC(C)C)c(=O)[nH]c1C(F)(F)C(F)(F)F [compound 664] was tested, and the “E (ZEAMX)” value (Zea mays (corn); dosage 25 g/ha) was greater than 5.

CCc1[nH]c(=O)c(C(=O)N(C)CC(=O)OC)cc1C [compound 2817] was tested, and the “E (ZEAMX)” value (Zea mays (corn); dosage 25 g/ha) was greater than 5.

With CCc1cc(C(=O)NC(C)CC(C)C)c(=O)[nH]c1C(F)(F)C(F)(F)F (stereo not drawn) [compound 696] the “E (ZEAMX)” value (Zea mays (corn); dosage 25 g/ha) was greater than 5.

In the case of CN(C)C(=O)c1cc(Br)c(C(F)(Cl)C(F)(F)F)[nH]c1=O (stereo not drawn) [compound 2085], the “E (ZEAMX)” value (Zea mays (corn); dosage 250 g/ha) is reported as greater than 5.

Reference: patent publication US20160150782A1, “USE OF SELECTED PYRIDONE CARBOXAMIDES OR SALTS THEREOF AS ACTIVE SUBSTANCES AGAINST ABIOTIC PLANT STRESS” (BAYER CROPSCIENCE AKTIENGESELLSCHAFT, priority 2013, published 2016)
